Measured values as given in ChEMBL document CHEMBL3885881, “DrugMatrix”.

Species on record: Rattus norvegicus
Experiment: DrugMatrix - Regimen: Daily Repeat
Format: toxicity, organism-based, Sprague-Dawley
Set-up: regimen Daily Repeat, gender Male, age 6-8 weeks
Conditions: in vivo, po, route oral GAVAGE, […]; for ABSOLUTE BASOPHIL / ABSOLUTE EOSINOPHIL / ABSOLUTE LYMPHOCYTE / ABSOLUTE MONOCYTE / ABSOLUTE SEGMENTED NEUTROPHIL / BASOPHIL / EOSINOPHIL / ERYTHROCYTE COUNT / HEMATOCRIT / HEMOGLOBIN / LEUKOCYTE COUNT / LYMPHOCYTE / MEAN CORPUSCULAR HEMOGLOBIN / MEAN CORPUSCULAR HEMOGLOBIN CONCENTRATION / MEAN CORPUSCULAR VOLUME / MONOCYTE / NEUTROPHIL / NUCLEATED RED BLOOD CELLS / PLATELET COUNT: tissue Blood; for ALANINE AMINOTRANSFERASE / ALBUMIN / ALKALINE PHOSPHATASE / ASPARTATE AMINOTRANSFERASE / BLOOD UREA NITROGEN / CARBON DIOXIDE / CHLORIDE / CHOLESTEROL / CREATINE PHOSPHOKINASE / CREATININE / GLUCOSE / LACTATE DEHYDROGENASE / LIPASE / PHOSPHORUS / POTASSIUM / SODIUM / TOTAL BILIRUBIN / TOTAL PROTEIN / URIC ACID: tissue Plasma
[1] = 0 mg/kg, 72 h, dose level Control, time 3 day
[2] = 0 mg/kg, 120 h, dose level Control, time 5 day
[3] = 280 mg/kg, 72 h, dose level High, time 3 day

## CC/C(=C(/CC)c1ccc(O)cc1)c1ccc(O)cc1 [DIETHYLSTILBESTROL]
[1]
  ABSOLUTE BASOPHIL: 0 CELLS/uL
  ABSOLUTE EOSINOPHIL: 14 CELLS/uL
  ABSOLUTE LYMPHOCYTE: 11144.67 CELLS/uL
  ABSOLUTE MONOCYTE: 22.5 CELLS/uL
  ABSOLUTE SEGMENTED NEUTROPHIL: 535.5 CELLS/uL
  BASOPHIL: 0%
  EOSINOPHIL: 0.17%
  ERYTHROCYTE COUNT: 5.08 x10E6/uL
  HEMATOCRIT: 32.32%
  HEMOGLOBIN: 12.87 G/DL
  LEUKOCYTE COUNT: 11.72 x10E3/uL
  LYMPHOCYTE: 94.67%
  MEAN CORPUSCULAR HEMOGLOBIN: 25.37 pg
  MEAN CORPUSCULAR HEMOGLOBIN CONCENTRATION: 39.85 G/DL
  MEAN CORPUSCULAR VOLUME: 63.58 fL
  MONOCYTE: 0.17%
  NEUTROPHIL: 5%
  NUCLEATED RED BLOOD CELLS: 0 /100WBC
  PLATELET COUNT: 1084 x10E3/uL
  ALANINE AMINOTRANSFERASE: 67.5 u/L
  ALBUMIN: 4.02 G/DL
  ALKALINE PHOSPHATASE: 374.17 u/L
  ASPARTATE AMINOTRANSFERASE: 83.5 u/L
  BLOOD UREA NITROGEN: 14.5 mg/dL
  CARBON DIOXIDE: 30 mmol/L
  CHLORIDE: 100.5 MEQ/L
  CHOLESTEROL: 71.33 mg/dL
  CREATINE PHOSPHOKINASE: 268.33 u/L
  CREATININE: 0.16 mg/dL
  GLUCOSE: 170.5 mg/dL
  LACTATE DEHYDROGENASE: 81.17 u/L
  LIPASE: 16.67 u/L
  PHOSPHORUS: 10.07 mg/dL
  POTASSIUM: 5.03 MEQ/L
  SODIUM: 142.92 MEQ/L
  TOTAL BILIRUBIN: 0.17 mg/dL
  TOTAL PROTEIN: 5.63 G/DL
  URIC ACID: 0.5 mg/dL
[2]
  ABSOLUTE BASOPHIL: 0 CELLS/uL
  ABSOLUTE EOSINOPHIL: 37.5 CELLS/uL
  ABSOLUTE LYMPHOCYTE: 8049.5 CELLS/uL
  ABSOLUTE MONOCYTE: 82.83 CELLS/uL
  ABSOLUTE SEGMENTED NEUTROPHIL: 646.83 CELLS/uL
  BASOPHIL: 0%
  EOSINOPHIL: 0.5%
  ERYTHROCYTE COUNT: 5.36 x10E6/uL
  HEMATOCRIT: 33.9%
  HEMOGLOBIN: 13.02 G/DL
  LEUKOCYTE COUNT: 8.82 x10E3/uL
  LYMPHOCYTE: 90.17%
  MEAN CORPUSCULAR HEMOGLOBIN: 24.32 pg
  MEAN CORPUSCULAR HEMOGLOBIN CONCENTRATION: 38.42 G/DL
  MEAN CORPUSCULAR VOLUME: 63.32 fL
  MONOCYTE: 1.17%
  NEUTROPHIL: 8.17%
  NUCLEATED RED BLOOD CELLS: 0.17 /100WBC
  PLATELET COUNT: 1231.5 x10E3/uL
  ALANINE AMINOTRANSFERASE: 62 u/L
  ALBUMIN: 3.97 G/DL
  ALKALINE PHOSPHATASE: 303.67 u/L
  ASPARTATE AMINOTRANSFERASE: 84.5 u/L
  BLOOD UREA NITROGEN: 14.83 mg/dL
  CARBON DIOXIDE: 31.83 mmol/L
  CHLORIDE: 97 MEQ/L
  CHOLESTEROL: 68.83 mg/dL
  CREATINE PHOSPHOKINASE: 411.33 u/L
  CREATININE: 0.16 mg/dL
  GLUCOSE: 170.17 mg/dL
  LACTATE DEHYDROGENASE: 88.5 u/L
  LIPASE: 9.5 u/L
  PHOSPHORUS: 9.98 mg/dL
  POTASSIUM: 5.72 MEQ/L
  SODIUM: 141.62 MEQ/L
  TOTAL BILIRUBIN: 0.1 mg/dL
  TOTAL PROTEIN: 5.67 G/DL
  URIC ACID: 0.52 mg/dL
[3]
  ABSOLUTE BASOPHIL: 0 CELLS/uL
  ABSOLUTE EOSINOPHIL: 42 CELLS/uL
  ABSOLUTE LYMPHOCYTE: 6341.67 CELLS/uL
  ABSOLUTE MONOCYTE: 46.67 CELLS/uL
  ABSOLUTE SEGMENTED NEUTROPHIL: 836.33 CELLS/uL
  BASOPHIL: 0%
  EOSINOPHIL: 0.67%
  ERYTHROCYTE COUNT: 5.06 x10E6/uL
  HEMATOCRIT: 31.5%
  HEMOGLOBIN: 12.2 G/DL
  LEUKOCYTE COUNT: 7.27 x10E3/uL
  LYMPHOCYTE: 87%
  MEAN CORPUSCULAR HEMOGLOBIN: 24.13 pg
  MEAN CORPUSCULAR HEMOGLOBIN CONCENTRATION: 38.77 G/DL
  MEAN CORPUSCULAR VOLUME: 62.27 fL
  MONOCYTE: 0.67%
  NEUTROPHIL: 11.67%
  NUCLEATED RED BLOOD CELLS: 0 /100WBC
  PLATELET COUNT: 1040.67 x10E3/uL
  ALANINE AMINOTRANSFERASE: 64 u/L
  ALBUMIN: 3.57 G/DL
  ALKALINE PHOSPHATASE: 625.67 u/L
  ASPARTATE AMINOTRANSFERASE: 73 u/L
  BLOOD UREA NITROGEN: 16 mg/dL
  CARBON DIOXIDE: 23 mmol/L
  CHLORIDE: 107.33 MEQ/L
  CHOLESTEROL: 31.33 mg/dL
  CREATINE PHOSPHOKINASE: 341 u/L
  CREATININE: 0.17 mg/dL
  GLUCOSE: 156.67 mg/dL
  LACTATE DEHYDROGENASE: 103.33 u/L
  LIPASE: 8 u/L
  PHOSPHORUS: 9 mg/dL
  POTASSIUM: 5.01 MEQ/L
  SODIUM: 147.7 MEQ/L
  TOTAL BILIRUBIN: 0.27 mg/dL
  TOTAL PROTEIN: 5.5 G/DL
  URIC ACID: 0.53 mg/dL
